From US20110104281A1, “METHOD FOR TREATING PAIN USING A SUBSTITUTED 2-AMINOTETRALIN COMPOUND” (UCB PHARMA GMBH, priority 2006, published 2011)
Where two headings read alike, the source gives them in different places.

Key:
α2B receptor = α2B receptor (Homo sapiens, UniProt P18089); conditions: cited from earlier work
CD-1 (Crl.) derived mice = conditions: for Hind paw licking time, % Inhibition: vs vehicle
From the text: The mouse formalin test is a chemically-induced sustained pain model with biphasic changes of nociceptive behavior. In mice, the test measures duration of hind paw licking following subplantar injection of formalin. Formalin produces a characteristic biphasic pain response. The early phase reflects acute pain and the late phase the chronic pain in which spinal/supraspinal plasticity of nociception is considered as a molecular basis. […] See, for example, Hunskaar et al., J. Neuroscience Meth. 14:69-76 (1985).
Rotigotine (SPM-962 base) was evaluated for possible analgesic activity in the mouse formalin test in which hind paw licking time was measured at 5-minute intervals for 30 minutes following subplantar injection of formalin.
Rotigotine was administered intraperitoneally to 10 CD-1 (Crl.) derived mice weighing 22±2 g (provided by BioLasco Taiwan under Charles River Laboratories Technology License). Rotigotine (3, 1 and 0.3 mg/kg) in a vehicle (5 ml/kg) comprising 0.2% HPMC (hydroxypropylmethylcellulose) and 0.9% NaCl, and vehicle (5 ml/kg) alone as a control, were each administered by intraperitoneal (i.p.) injection 30 minutes before subplantar injection of formalin (0.02 ml, 2% solution). Reduction of formalin-induced hind paw licking time was recorded at 5-minute intervals during the 0 to 30 minute period after formalin injection. A reduction of licking time of ≧50% indicates significant analgesic and anti-phlogistic activity. Statistical analysis was performed using one-way ANOVA (analysis of variance) and Dunnett's test to compare rotigotine-treated and vehicle control groups. Observation of animals for acute toxic symptoms and autonomic effects was performed before formalin injection.

[1] = rotigotine 0.3 mg/kg i.p., 0-5 min after formalin
[2] = rotigotine 0.3 mg/kg i.p., 5-10 min after formalin
[3] = rotigotine 0.3 mg/kg i.p., 10-15 min after formalin
[4] = rotigotine 0.3 mg/kg i.p., 15-20 min after formalin
[5] = rotigotine 0.3 mg/kg i.p., 20-25 min after formalin
[6] = rotigotine 0.3 mg/kg i.p., 25-30 min after formalin
[7] = rotigotine 1 mg/kg i.p., 0-5 min after formalin
[8] = rotigotine 1 mg/kg i.p., 5-10 min after formalin
[9] = rotigotine 1 mg/kg i.p., 10-15 min after formalin
[10] = rotigotine 1 mg/kg i.p., 15-20 min after formalin
[11] = rotigotine 1 mg/kg i.p., 20-25 min after formalin
[12] = rotigotine 1 mg/kg i.p., 25-30 min after formalin
[13] = rotigotine 3 mg/kg i.p., 5-10 min after formalin
[14] = rotigotine 3 mg/kg i.p., 10-15 min after formalin
[15] = rotigotine 3 mg/kg i.p., 15-20 min after formalin
[16] = rotigotine 3 mg/kg i.p., 20-25 min after formalin
[17] = rotigotine 3 mg/kg i.p., 25-30 min after formalin

α2B receptor, sequence (P18089 whole entry): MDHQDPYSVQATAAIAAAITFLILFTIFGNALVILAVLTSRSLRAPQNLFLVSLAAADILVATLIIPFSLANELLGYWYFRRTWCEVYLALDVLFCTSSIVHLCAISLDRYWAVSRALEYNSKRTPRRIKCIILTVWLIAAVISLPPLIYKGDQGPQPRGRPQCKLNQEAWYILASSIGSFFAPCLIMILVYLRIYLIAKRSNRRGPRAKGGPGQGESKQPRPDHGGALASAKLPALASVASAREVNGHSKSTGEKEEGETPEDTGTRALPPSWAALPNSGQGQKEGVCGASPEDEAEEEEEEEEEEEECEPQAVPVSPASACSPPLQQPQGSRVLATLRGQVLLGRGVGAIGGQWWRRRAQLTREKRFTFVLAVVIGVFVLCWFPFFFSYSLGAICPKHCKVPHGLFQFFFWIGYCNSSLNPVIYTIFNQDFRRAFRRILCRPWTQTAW

## CCCN(CCc1cccs1)[C@H]1CCc2c(O)cccc2C1 [Rotigotine, 5,6,7,8-tetrahydro-6-[propyl-[2-(2-thienyl)ethyl]amino]-1-naphthol]
α2B receptor
  Affinity / action at α2B receptor: antagonist of the α2B receptor
CD-1 (Crl.) derived mice; 1 mg/kg and 3 mg/kg, 10-15, 20-25 and 25-30 minute intervals
  Reduction in hind paw licking time: Significant reduction
CD-1 (Crl.) derived mice; all three doses, at least at the 0-5 and 15-20 minute intervals
  Reduction in formalin-induced hind paw licking time over the vehicle control: Significant reduction
CD-1 (Crl.) derived mice; early and late phase, 0.3, 1 and 3 mg/kg i.p.
  Analgesic activity in the mouse formalin test: significant dose-dependent analgesic activity
CD-1 (Crl.) derived mice; mice, 0.3-3 mg/kg i.p., observed before formalin injection
  Central or autonomic signs (acute toxic symptoms and autonomic effects): No significant central or autonomic signs were observed
CD-1 (Crl.) derived mice; [1]
  Hind paw licking time, Average: 47.9 s
  Hind paw licking time, % Inhibition: (41) %
CD-1 (Crl.) derived mice; [2]
  Hind paw licking time, Average: 0.0 s
  Hind paw licking time, % Inhibition: (100) %
CD-1 (Crl.) derived mice; [3]
  Hind paw licking time, Average: 8.0 s
  Hind paw licking time, % Inhibition: (67) %
CD-1 (Crl.) derived mice; [4]
  Hind paw licking time, Average: 37.3 s
  Hind paw licking time, % Inhibition: (56) %
CD-1 (Crl.) derived mice; [5]
  Hind paw licking time, Average: 57.2 s
  Hind paw licking time, % Inhibition: (25) %
CD-1 (Crl.) derived mice; [6]
  Hind paw licking time, Average: 54.8 s
  Hind paw licking time, % Inhibition: (16) %
CD-1 (Crl.) derived mice; [7]
  Hind paw licking time, Average: 41.0 s
  Hind paw licking time, % Inhibition: (50) %
CD-1 (Crl.) derived mice; [8]
  Hind paw licking time, Average: 0 s
  Hind paw licking time, % Inhibition: (100) %
CD-1 (Crl.) derived mice; [9]
  Hind paw licking time, Average: 0.2 s
  Hind paw licking time, % Inhibition: (99) %
CD-1 (Crl.) derived mice; [10]
  Hind paw licking time, Average: 10.3 s
  Hind paw licking time, % Inhibition: (88) %
CD-1 (Crl.) derived mice; [11]
  Hind paw licking time, Average: 16.3 s
  Hind paw licking time, % Inhibition: (79) %
CD-1 (Crl.) derived mice; [12]
  Hind paw licking time, Average: 33.5 s
  Hind paw licking time, % Inhibition: (49) %
CD-1 (Crl.) derived mice; rotigotine 3 mg/kg i.p. 30 min before formalin, 0-5 min after formalin
  Hind paw licking time, Average: 35.6 s
CD-1 (Crl.) derived mice; rotigotine 3 mg/kg i.p., 0-5 min after formalin
  Hind paw licking time, % Inhibition: (56) %
CD-1 (Crl.) derived mice; [13]
  Hind paw licking time, Average: 0 s
  Hind paw licking time, % Inhibition: (100) %
CD-1 (Crl.) derived mice; [14]
  Hind paw licking time, Average: 6 s
  Hind paw licking time, % Inhibition: (76) %
CD-1 (Crl.) derived mice; [15]
  Hind paw licking time, Average: 15.9 s
  Hind paw licking time, % Inhibition: (81) %
CD-1 (Crl.) derived mice; [16]
  Hind paw licking time, Average: 7.8 s
  Hind paw licking time, % Inhibition: (90) %
CD-1 (Crl.) derived mice; [17]
  Hind paw licking time, Average: 5.5 s
  Hind paw licking time, % Inhibition: (92) %
